From patent US20220233468A1 (priority 2021, published 2022)
“Also recorded” adds a separate entry of the source. Where two headings read alike, the source gives them in different places.

Legend:
TMPRSS2 = TMPRSS2 protein expression in cell lines by Western blotting; format: cell-based, human; mouse; conditions: a-tubulin internal control, A549, H1299, CL1-5, Beas-2B, TC-1, MLE-12 cell lines, 18 to 24 hrs treatment
Method: The effects of Compound A and Compound B on TMPRSS2 were investigated in A549 (human alveolar epithelial cell), H1299 (human non-small cell lung carcinoma cell), CL1-5 (human lung adenocarcinoma cell), Beas-2B (human normal bronchial epithelial cell), TC-1 (mouse lung epithelial cell) and MLE-12 (mouse lung epithelial cell) cell lines. The expression of TMPRSS2 in cells was analyzed by Western blotting, and a-tubulin was used as an internal control.

[1] = tested on: SARS-CoV-2 S pseudovirions; assay: microbe, parasite or virus in culture; format: cell-based; conditions: Severe acute respiratory syndrome coronavirus 2
[2] = read-out: EC50, inhibition of cellular entry of SARS-CoV-2 S pseudovirions

Structure (SMILES)	protein expression of TMPRSS2 (TMPRSS2)	EC50 [1, 2] [µM]	EC50 ([1]; read-out: EC50, prophylactic inhibition of cellular entry of pseudovirions, wild-type Spike) [µM]
COc1ccc(/C=C/C(=O)C(F)(CC2CCC2)C(=O)/C=C/c2ccc(OC)c(OC)c2)cc1OC [Compound A, 4-fluoro-4-cyclobutylmethyl-1,7-bis(3,4-dimethoxyphenyl)hepta-1,6-diene-3,5-dione]	inhibit the protein expression of TMPRSS2	~5.3	
COc1ccc(/C=C/C(=O)C(CC2CCC2)C(=O)/C=C/c2ccc(OC)c(OC)c2)cc1OC [Compound B, 4-(cyclobutylmethyl)-1,7-bis(3,4-dimethoxyphenyl)hepta-1,6-diene-3,5-dione]	inhibit the protein expression of TMPRSS2; also recorded: greater TMPRSS2 inhibitory activity as compared to Compound A	~4.6	~3.5
